16 molecules from patent publication US9174974B2, “Macrocyclic factor VIIa inhibitors” (BRISTOL-MYERS SQUIBB COMPANY, priority 2012, dated 2015) can be followed below.

Where two headings read alike, the source gives them in different places.

One experiment deals with tissue kallikrein (HK1) (Homo sapiens (Human), UniProt P06870). Kind of experiment: Tissue kallikrein-1 (HK1) Ki, fluorogenic substrate assay. It is filed as biochemical. The note with it: 37° C.
The target of the next experiment is human FVIIa (Homo sapiens (Human), UniProt P08709). Kind of experiment: FVIIa Ki (37° C.), FVIIa-Xase assay. It is filed as biochemical. The conditions noted are these: for Ki(HK1)/Ki(FVIIa): selectivity ratio, tissue kallikrein (HK1) vs FVIIa.
human FVIIa, sequence (P08709 61-212): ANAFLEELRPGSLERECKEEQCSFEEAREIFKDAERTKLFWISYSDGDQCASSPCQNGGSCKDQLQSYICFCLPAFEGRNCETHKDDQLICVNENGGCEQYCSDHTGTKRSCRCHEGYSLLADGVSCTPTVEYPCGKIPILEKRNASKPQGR
human FVIIa, sequence (P08709 213-466): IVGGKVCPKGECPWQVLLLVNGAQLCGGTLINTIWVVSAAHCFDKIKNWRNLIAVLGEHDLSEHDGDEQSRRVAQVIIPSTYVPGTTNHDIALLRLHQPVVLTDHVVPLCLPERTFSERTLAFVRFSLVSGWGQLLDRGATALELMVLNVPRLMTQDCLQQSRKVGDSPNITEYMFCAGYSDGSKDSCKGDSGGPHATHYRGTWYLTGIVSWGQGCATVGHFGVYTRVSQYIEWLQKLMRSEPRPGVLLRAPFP
human FVIIa, sequence (P13726 33-295 partner): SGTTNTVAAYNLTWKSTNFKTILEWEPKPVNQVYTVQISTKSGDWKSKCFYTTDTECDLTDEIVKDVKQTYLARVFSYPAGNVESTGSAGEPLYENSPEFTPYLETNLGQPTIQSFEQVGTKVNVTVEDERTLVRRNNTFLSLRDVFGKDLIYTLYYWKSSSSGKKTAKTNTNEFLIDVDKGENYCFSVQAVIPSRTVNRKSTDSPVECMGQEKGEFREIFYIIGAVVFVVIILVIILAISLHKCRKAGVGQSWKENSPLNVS

tissue kallikrein (HK1), sequence (P06870 25-262): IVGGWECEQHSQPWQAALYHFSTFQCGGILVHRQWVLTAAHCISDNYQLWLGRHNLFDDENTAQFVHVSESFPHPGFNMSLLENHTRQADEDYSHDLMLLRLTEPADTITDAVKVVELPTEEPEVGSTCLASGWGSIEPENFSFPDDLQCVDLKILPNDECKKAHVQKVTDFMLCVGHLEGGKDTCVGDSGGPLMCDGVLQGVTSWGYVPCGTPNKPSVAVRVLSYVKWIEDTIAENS

Regarding `Cc1cc2ccc1[C@@H](C)COC(=O)Nc1cc(F)c(OC[C@H](C)O)c(c1)CN(C)C(=O)[C@@H]2Nc1ccc2c(N)nccc2c1.O=C(O)C(F)(F)F` [Example 17, (2R,15R)-2-[(1-Aminoisoquinolin-6-yl)amino]-8-fluoro-7-[(2S)-2-hydroxypropoxy]-4,15,20-trimethyl-13-oxa-4,11-diazatricyclo[14.2.2.1^6,10]henicosa-1(18),6,8,10 (21),16,19-hexaene-3,12-dione; trifluoroacetic acid], the Ki at tissue kallikrein (HK1) amounted to 400 nM; at human FVIIa (read-out: FVIIa Ki, nM 37° C.) it was 0.46 nM. In addition, at human FVIIa, the “Ki(HK1)/Ki(FVIIa)” value was 870.
Regarding `Cc1cc2ccc1[C@@H](C)COC(=O)Nc1cc(F)c(OCC3(C#N)CC3)c(c1)CN(C)C(=O)[C@@H]2Nc1ccc2c(N)nccc2c1.O=C(O)C(F)(F)F` [Example 18, 1-({[(2R,15R)-2-[(1-Aminoisoquinolin-6-yl)amino]-8-fluoro-4,15,20-trimethyl-3,12-dioxo-13-oxa-4,11-diazatricyclo[14.2.2.1^6,10]henicosa-1(18),6,8,10 (21),16,19-hexaen-7-yl]oxy}methyl)cyclopropane-1-carbonitrile; trifluoroacetic acid], at tissue kallikrein (HK1), the Ki worked out at 490 nM. Further, on human FVIIa, the affinity, expressed as Ki, was 0.44 nM and the “Ki(HK1)/Ki(FVIIa)” value is listed as 1114.
As to `Cc1cc2ccc1[C@@H](C)COC(=O)Nc1cc(F)c(S(=O)(=O)C(C)C)c(c1)CN(C)C(=O)[C@@H]2Nc1cc(F)c2c(N)nccc2c1.O=C(O)C(F)(F)F` [Example 20, (2R,15R)-2-[(1-Amino-8-fluoroisoquinolin-6-yl)amino]-8-fluoro-4,15,17-trimethyl-7-(propane-2-sulfonyl)-13-oxa-4,11-diazatricyclo[14.2.2.1^6,10]henicosa-1(18),6,8,10 (21),16,19-hexaene-3,12-dione; trifluoroacetic acid], the Ki at tissue kallikrein (HK1) was determined as 120 nM; on human FVIIa (read-out: FVIIa Ki, nM 37° C.), 0.36 nM. Also, the “Ki(HK1)/Ki(FVIIa)” value on human FVIIa came to 333.
Take `CCN(Cc1nccs1)C(=O)c1ccc2cc1CN(C)C(=O)[C@H](Nc1ccc3c(N)nccc3c1)c1ccc(c(C)c1)[C@@H](C)COC(=O)N2.O=C(O)C(F)(F)F` [Example 23, (2R,15R)-2-[(1-Aminoisoquinolin-6-yl)amino]-N-ethyl-4,15,17-trimethyl-3,12-dioxo-N-(1,3-thiazol-2-ylmethyl)-13-oxa-4,11-diazatricyclo[14.2.2.1^6,10]henicosa-1(18),6,8,10 (21),16,19-hexaene-7-carboxamide; trifluoroacetic acid]: the Ki on tissue kallikrein (HK1) turned out to be 330 nM; on human FVIIa (read-out: FVIIa Ki, nM 37° C.), 0.3 nM. In addition, the “Ki(HK1)/Ki(FVIIa)” value at human FVIIa is listed as 1100.
Take `COc1cc2c(F)cc1[C@@H](C)COC(=O)Nc1ccc(S(=O)(=O)C3CC3)c(c1)CN(C)C(=O)[C@@H]2Nc1cc2ccnc(N)c2cc1F.O=C(O)C(F)(F)F` [Example 25, (2R,15R)-2-[(1-Amino-7-fluoroisoquinolin-6-yl)amino]-7-(cyclopropanesulfonyl)-18-fluoro-20-methoxy-4,15-dimethyl-13-oxa-4,11-diazatricyclo[14.2.2.1^6,10]henicosa-1(18),6,8,10 (21),16,19-hexaene-3,12-dione; trifluoroacetic acid]: the Ki at tissue kallikrein (HK1) worked out at 270 nM; at human FVIIa (read-out: FVIIa Ki, nM 37° C.) it was 0.25 nM. Moreover, on human FVIIa, the “Ki(HK1)/Ki(FVIIa)” value turned out to be 1080.
On to `Cc1cc2ccc1[C@@H](C)COC(=O)Nc1cc(F)c(O[C@@H]3COC[C@@H]3O)c(c1)CN(C)C(=O)[C@@H]2Nc1ccc2c(N)nccc2c1.O=C(O)C(F)(F)F` [Example 27, (2R,15R)-2-[(1-Aminoisoquinolin-6-yl)amino]-8-fluoro-7-{[(3R,4S)-4-hydroxyoxolan-3-yl]oxy}-4,15,17-trimethyl-13-oxa-4,11-diazatricyclo[14.2.2.1^6,10]henicosa-1(18),6,8,10 (21),16,19-hexaene-3,12-dione; trifluoroacetic acid], for which the Ki was determined as 320 nM on tissue kallikrein (HK1) and 0.23 nM on human FVIIa (read-out: FVIIa Ki, nM 37° C.). Further, the “Ki(HK1)/Ki(FVIIa)” value on human FVIIa was found to be 1391.
`COCCCOc1c(F)cc2cc1CN(C)C(=O)[C@H](Nc1ccc3c(N)nccc3c1)c1ccc(c(C)c1)[C@@H](C)COC(=O)N2.O=C(O)C(F)(F)F` [Example 28, (2R,15R)-2-[(1-Aminoisoquinolin-6-yl)amino]-8-fluoro-7-(3-methoxypropoxy)-4,15,20-trimethyl-13-oxa-4,11-diazatricyclo[14.2.2.1^6,10]henicosa-1(18),6,8,10 (21),16,19-hexaene-3,12-dione; trifluoroacetic acid]: the Ki is 290 nM on tissue kallikrein (HK1) and 0.2 nM on human FVIIa (read-out: FVIIa Ki, nM 37° C.). Besides, the “Ki(HK1)/Ki(FVIIa)” value at human FVIIa worked out at 1450.
For `Cc1cc2ccc1[C@@H](C)COC(=O)Nc1cc(F)c(S(=O)(=O)C3CC3)c(c1)CN(C)C(=O)[C@@H]2Nc1cc2ccnc(N)c2cc1F.O=C(O)C(F)(F)F` [Example 29, (2R,15R)-2-[(1-Amino-7-fluoroisoquinolin-6-yl)amino]-7-(cyclopropanesulfonyl)-8-fluoro-4,15,17-trimethyl-13-oxa-4,11-diazatricyclo[14.2.2.1^6,10]henicosa-1(18),6,8,10 (21),16,19-hexaene-3,12-dione; trifluoroacetic acid], the Ki at tissue kallikrein (HK1) stood at 750 nM; on human FVIIa (read-out: FVIIa Ki, nM 37° C.), 0.17 nM. The “Ki(HK1)/Ki(FVIIa)” value at human FVIIa came out at 4412.
Taken in the same sequence, the figures for `Cc1cc2ccc1[C@@H](C)COC(=O)Nc1cc(F)c(O[C@H](C)CO)c(c1)CN(C)C(=O)[C@@H]2Nc1ccc2c(N)nccc2c1.O=C(O)C(F)(F)F` [Example 30, (2R,15R)-2-[(1-Aminoisoquinolin-6-yl)amino]-8-fluoro-7-{[(2R)-1-hydroxypropan-2-yl]oxy}-4,15,20-trimethyl-13-oxa-4,11-diazatricyclo[14.2.2.16,10]henicosa-1(18),6,8,10 (21),16,19-hexaene-3,12-dione; trifluoroacetic acid] were 70 nM, 0.17 nM and 412.
As to `Cc1cc2ccc1[C@@H](C)COC(=O)Nc1cc(F)c(OC(CF)CF)c(c1)CN(C)C(=O)[C@@H]2Nc1ccc2c(N)nccc2c1.O=C(O)C(F)(F)F` [Example 32, (2R,15R)-2-[(1-Aminoisoquinolin-6-yl)amino]-7-[(1,3-difluoropropan-2-yl)oxy]-8-fluoro-4,15,20-trimethyl-13-oxa-4,11-diazatricyclo[14.2.2.1^6,10]henicosa-1(18),6,8,10 (21),16,19-hexaene-3,12-dione; trifluoroacetic acid], the Ki at tissue kallikrein (HK1) amounted to 41 nM; on human FVIIa (read-out: FVIIa Ki, nM 37° C.), 0.15 nM. Besides, the “Ki(HK1)/Ki(FVIIa)” value at human FVIIa came to 273.
Consider `Cc1cc2ccc1[C@@H](C)COC(=O)Nc1cc(F)c(O[C@@H](C)CO)c(c1)CN(C)C(=O)[C@@H]2Nc1ccc2c(N)nccc2c1.O=C(O)C(F)(F)F` [Example 33, (2R,15R)-2-[(1-Aminoisoquinolin-6-yl)amino]-8-fluoro-7-{[(2S)-1-hydroxypropan-2-yl]oxy}-4,15,20-trimethyl-13-oxa-4,11-diazatricyclo[14.2.2.16,10]henicosa-1(18),6,8,10 (21),16,19-hexaene-3,12-dione; trifluoroacetic acid], for which the Ki at tissue kallikrein (HK1) stood at 50 nM; on human FVIIa (read-out: FVIIa Ki, nM 37° C.), 0.14 nM. Further, the “Ki(HK1)/Ki(FVIIa)” value at human FVIIa is given as 357.
In the case of `Cc1cc2ccc1[C@@H](C)COC(=O)Nc1cc(F)c(S(=O)(=O)C(C)C)c(c1)CN(C)C(=O)[C@@H]2Nc1cc2ccnc(N)c2cc1F.O=C(O)C(F)(F)F` [Example 34, (2R,15R)-2-[(1-Amino-7-fluoroisoquinolin-6-yl)amino]-8-fluoro-4,15,17-trimethyl-7-(propane-2-sulfonyl)-13-oxa-4,11-diazatricyclo[14.2.2.1^6,10]henicosa-1(18),6,8,10 (21),16,19-hexaene-3,12-dione; trifluoroacetic acid], the Ki stood at 2100 nM at tissue kallikrein (HK1) and 0.14 nM at human FVIIa (read-out: FVIIa Ki, nM 37° C.). Also, the “Ki(HK1)/Ki(FVIIa)” value at human FVIIa amounted to 15000.
For the molecule `Cc1cc2ccc1[C@@H](C)COC(=O)Nc1cc(F)c(OCCN3CCCC3=O)c(c1)CN(C)C(=O)[C@@H]2Nc1ccc2c(N)nccc2c1.O=C(O)C(F)(F)F` [Example 35, (2R,15R)-2-[(1-Aminoisoquinolin-6-yl)amino]-8-fluoro-4,15,20-trimethyl-7-[2-(2-oxopyrrolidin-1-yl)ethoxy]-13-oxa-4,11-diazatricyclo[14.2.2.16,10]henicosa-1(18),6,8,10 (21),16,19-hexaene-3,12-dione; trifluoroacetic acid], the Ki was 210 nM at tissue kallikrein (HK1) and 0.14 nM at human FVIIa (read-out: FVIIa Ki, nM 37° C.). The “Ki(HK1)/Ki(FVIIa)” value at human FVIIa stood at 1500.
In the case of `Cc1cc2ccc1[C@@H](C)COC(=O)Nc1ccc(C3(c4nnn[nH]4)CC3)c(c1)CN(C)C(=O)[C@@H]2Nc1ccc2c(N)nccc2c1.O=C(O)C(F)(F)F` [Example 36, (2R,15R)-2-[(1-Aminoisoquinolin-6-yl)amino]-4,15,20-trimethyl-7-[1-(1H-1,2,3,4-tetrazol-5-yl)cyclopropyl]-13-oxa-4,11-diazatricyclo[14.2.2.1^6,10]henicosa-1(18),6,8,10 (21),16,19-hexaene-3,12-dione; trifluoroacetic acid], the Ki on tissue kallikrein (HK1) worked out at 230 nM; at human FVIIa (read-out: FVIIa Ki, nM 37° C.), 0.12 nM. For the same molecule, the “Ki(HK1)/Ki(FVIIa)” value on human FVIIa turned out to be 1917.
Turning to `COC[C@H](C)Oc1c(F)cc2cc1CN(C)C(=O)[C@H](Nc1ccc3c(N)nccc3c1)c1ccc(c(C)c1)[C@@H](C)COC(=O)N2.O=C(O)C(F)(F)F` [Example 37, (2R,15R)-2-[(1-Aminoisoquinolin-6-yl)amino]-8-fluoro-7-{[(2S)-1-methoxypropan-2-yl]oxy}-4,15,20-trimethyl-13-oxa-4,11-diazatricyclo[14.2.2.1^6,10]henicosa-1(18),6,8,10 (21),16,19-hexaene-3,12-dione; trifluoroacetic acid], the Ki turned out to be 190 nM at tissue kallikrein (HK1) and 0.14 nM on human FVIIa (read-out: FVIIa Ki, nM 37° C.). The “Ki(HK1)/Ki(FVIIa)” value at human FVIIa was 1357.
As to `Cc1cc2ccc1[C@@H](C)COC(=O)Nc1cc(F)c(O[C@@H]3CCOC3)c(c1)CN(C)C(=O)[C@@H]2Nc1ccc2c(N)nccc2c1.O=C(O)C(F)(F)F` [Example 38, (2R,15R)-2-[(1-Aminoisoquinolin-6-yl)amino]-8-fluoro-4,15,20-trimethyl-7-[(3R)-oxolan-3-yloxy]-13-oxa-4,11-diazatricyclo[14.2.2.1^6,10]henicosa-1(18),6,8,10 (21),16,19-hexaene-3,12-dione; trifluoroacetic acid], the Ki on tissue kallikrein (HK1) was found to be 290 nM; on human FVIIa (read-out: FVIIa Ki, nM 37° C.), 0.05 nM. Besides, at human FVIIa, the “Ki(HK1)/Ki(FVIIa)” value turned out to be 5800.

Broadly, the Ki is a dissociation constant, usually derived from enzyme kinetics or from competition with a known ligand.
